Source: ChEMBL document CHEMBL1201862, “PubChem BioAssay data set” (2004)
Calls of active or inactive are those of the source.

Columns and labels:
[1] = target: Intestinal-type alkaline phosphatase (Homo sapiens, UniProt P09923); experiment: Dose Response confirmation of uHTS hits from a small molecule inhibitors of human intestinal alkaline phosphatase via a luminescent assay. [Related pubchem assays (depositor defined):AID2544, AID2574]; format: functional
[2] = target: DNA dC->dU-editing enzyme APOBEC-3G (Homo sapiens, UniProt Q9HC16); experiment: Dose Response confirmation of small molecule APOBEC3G DNA Deaminase Inhibitors via a fluorescence-based single-stranded DNA deaminase assay. [Related pubchem assays (depositor defined):AID493012, AID493028]; format: functional
Sequence of DNA dC->dU-editing enzyme APOBEC-3G (Q9HC16 whole entry): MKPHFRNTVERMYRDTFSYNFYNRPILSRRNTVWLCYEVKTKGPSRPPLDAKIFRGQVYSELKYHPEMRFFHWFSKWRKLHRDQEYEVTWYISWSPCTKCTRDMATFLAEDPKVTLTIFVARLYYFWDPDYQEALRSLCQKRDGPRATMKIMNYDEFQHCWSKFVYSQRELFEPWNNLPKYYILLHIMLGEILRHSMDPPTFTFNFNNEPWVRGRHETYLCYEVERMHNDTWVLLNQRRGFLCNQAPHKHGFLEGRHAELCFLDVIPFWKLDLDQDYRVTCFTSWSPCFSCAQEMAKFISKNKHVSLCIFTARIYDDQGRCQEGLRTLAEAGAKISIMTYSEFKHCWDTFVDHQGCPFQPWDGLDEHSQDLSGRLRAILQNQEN

[3] = target: DNA dC->dU-editing enzyme APOBEC-3A (Homo sapiens, UniProt P31941); experiment: A3A deaminase inhibition for selectivity – biochemical, dose response (AID 504722); format: functional
Sequence of DNA dC->dU-editing enzyme APOBEC-3A (P31941 whole entry): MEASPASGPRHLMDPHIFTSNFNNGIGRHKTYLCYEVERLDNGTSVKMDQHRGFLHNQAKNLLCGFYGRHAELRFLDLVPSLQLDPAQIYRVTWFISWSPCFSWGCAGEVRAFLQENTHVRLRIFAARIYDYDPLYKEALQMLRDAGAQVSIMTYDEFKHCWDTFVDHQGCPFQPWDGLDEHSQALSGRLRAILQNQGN

Large T antigen = Large T antigen (Simian virus 40, UniProt P03070); format: functional, Betapolyomavirus macacae;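 note: Confirmatory-stage PubChem screen for compounds that inhibit SV40 T antigen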
Sequence of Large T antigen (P03070 whole entry): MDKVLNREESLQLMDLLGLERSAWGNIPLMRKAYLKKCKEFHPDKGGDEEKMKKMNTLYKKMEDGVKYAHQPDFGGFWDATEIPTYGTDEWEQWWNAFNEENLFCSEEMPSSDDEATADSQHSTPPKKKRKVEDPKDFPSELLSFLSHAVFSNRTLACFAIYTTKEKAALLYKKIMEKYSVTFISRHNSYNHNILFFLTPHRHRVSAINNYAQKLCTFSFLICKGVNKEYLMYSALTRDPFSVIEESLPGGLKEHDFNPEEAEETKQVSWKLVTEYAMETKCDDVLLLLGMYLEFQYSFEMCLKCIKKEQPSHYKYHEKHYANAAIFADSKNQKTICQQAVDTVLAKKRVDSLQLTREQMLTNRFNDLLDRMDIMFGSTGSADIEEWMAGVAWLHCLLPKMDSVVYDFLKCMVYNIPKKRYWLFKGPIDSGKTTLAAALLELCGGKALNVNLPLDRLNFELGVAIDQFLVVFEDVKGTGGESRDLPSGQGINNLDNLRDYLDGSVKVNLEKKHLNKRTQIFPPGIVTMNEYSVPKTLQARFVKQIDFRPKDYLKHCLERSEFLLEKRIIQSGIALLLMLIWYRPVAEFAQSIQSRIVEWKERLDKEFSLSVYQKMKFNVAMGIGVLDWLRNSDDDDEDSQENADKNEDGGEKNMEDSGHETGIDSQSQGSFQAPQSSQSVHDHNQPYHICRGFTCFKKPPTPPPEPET

[4] = DRD fibroblast viability loss – cell-based, non-viral oncogenic, luminescence, dose response (AID 1934); format: functional; details: Homo sapiens
Protein RecA = target: T1, Protein RecA (Mycobacterium tuberculosis, UniProt P9WHJ3); experiment: Fluorescence Cell-Free Homogeneous Dose Retest to Identify Inhibitors of RecA-Intein Splicing Activity. [Related pubchem assays (depositor defined):AID2097, AID2223, AID489010, AID492950]; format: functional
T1 sequence (P9WHJ3 whole entry): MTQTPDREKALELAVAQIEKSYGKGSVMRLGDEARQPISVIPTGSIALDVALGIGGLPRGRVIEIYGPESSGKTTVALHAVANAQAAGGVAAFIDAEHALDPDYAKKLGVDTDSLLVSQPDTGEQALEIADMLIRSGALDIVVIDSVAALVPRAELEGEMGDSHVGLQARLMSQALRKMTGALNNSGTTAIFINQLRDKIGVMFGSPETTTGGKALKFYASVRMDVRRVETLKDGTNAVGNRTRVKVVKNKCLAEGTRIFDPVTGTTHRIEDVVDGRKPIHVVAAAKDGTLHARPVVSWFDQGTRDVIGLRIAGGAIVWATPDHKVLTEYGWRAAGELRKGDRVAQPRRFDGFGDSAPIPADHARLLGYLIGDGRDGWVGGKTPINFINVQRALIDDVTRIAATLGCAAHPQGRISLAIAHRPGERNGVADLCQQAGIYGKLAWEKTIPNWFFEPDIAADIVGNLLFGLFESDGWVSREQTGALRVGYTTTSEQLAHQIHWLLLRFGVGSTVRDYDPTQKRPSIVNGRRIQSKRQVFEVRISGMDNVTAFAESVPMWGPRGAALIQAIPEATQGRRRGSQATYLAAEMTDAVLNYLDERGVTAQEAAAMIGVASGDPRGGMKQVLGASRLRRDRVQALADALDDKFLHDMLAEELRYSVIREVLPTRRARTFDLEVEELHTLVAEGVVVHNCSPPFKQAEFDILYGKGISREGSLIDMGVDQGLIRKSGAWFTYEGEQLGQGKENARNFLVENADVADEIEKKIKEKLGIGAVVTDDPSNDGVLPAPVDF

[5] = target: T2, Replicative DNA helicase DnaB (Mycobacterium tuberculosis, UniProt P9WMR3); experiment: DnaB intein splicing inhibitors, dose response, biochemical, cell-free fluorescence (AID 449749); format: functional
T2 sequence (P9WMR3 whole entry): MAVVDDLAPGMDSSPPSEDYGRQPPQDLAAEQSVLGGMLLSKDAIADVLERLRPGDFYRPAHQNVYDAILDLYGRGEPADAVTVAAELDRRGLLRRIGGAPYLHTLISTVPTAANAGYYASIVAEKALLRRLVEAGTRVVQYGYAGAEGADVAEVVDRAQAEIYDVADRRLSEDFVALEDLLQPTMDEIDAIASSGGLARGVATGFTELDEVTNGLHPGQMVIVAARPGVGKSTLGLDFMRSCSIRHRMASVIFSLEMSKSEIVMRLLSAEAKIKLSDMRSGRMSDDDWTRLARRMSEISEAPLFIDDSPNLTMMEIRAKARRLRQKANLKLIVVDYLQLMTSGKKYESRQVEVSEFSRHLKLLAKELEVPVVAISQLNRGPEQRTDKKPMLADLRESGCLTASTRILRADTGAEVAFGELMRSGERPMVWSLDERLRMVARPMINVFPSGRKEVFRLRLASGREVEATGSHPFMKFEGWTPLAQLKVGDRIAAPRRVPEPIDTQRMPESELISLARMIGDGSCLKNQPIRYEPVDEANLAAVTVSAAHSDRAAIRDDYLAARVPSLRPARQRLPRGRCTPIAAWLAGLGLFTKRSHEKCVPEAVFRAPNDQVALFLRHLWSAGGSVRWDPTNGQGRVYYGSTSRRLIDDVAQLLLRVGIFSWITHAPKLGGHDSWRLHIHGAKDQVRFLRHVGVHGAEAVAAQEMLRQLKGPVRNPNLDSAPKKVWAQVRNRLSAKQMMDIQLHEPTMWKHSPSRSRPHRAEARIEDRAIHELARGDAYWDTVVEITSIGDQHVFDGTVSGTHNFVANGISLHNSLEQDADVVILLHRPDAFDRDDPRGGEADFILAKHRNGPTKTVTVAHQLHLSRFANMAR

BJ [6] = experiment: cells; format: functional, cell-based; details: Homo sapiens
BJ [7] = experiment: BJ-TERT-LT-ST fibroblast viability loss – cell-based, RAS-independent, luminescence, dose response (AID 1935); format: functional; details: Homo sapiens;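 note: BJ fibroblasts immortalized with TERT plus LT and ST oncogenes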
[8] = NIH3T3 cell viability loss – ATP luminescence, mouse fibroblasts, counter-screen, dose response (AID 2010); format: functional, cell-based;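 note: cells exposed to compound for about 90 hours before reading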
[9] = HEK-293T cell viability reduction – luminescence, B-cell screen hits, cytotoxicity control for BCR NF-kB inhibitor project, dose response (AID 489021); format: functional, cell-based;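 note: HEK-293T cells carrying an NF-kB luciferase reporter; cells exposed to compound for about 14 hours before viability readout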
BJ [10] = experiment: BJ-TERT fibroblast viability loss – cell-based, RAS-independent, luminescence, dose response (AID 1933); format: functional; details: Homo sapiens
Protein Wnt-3a = Protein Wnt-3a (Mus musculus, UniProt P27467); experiment: antagonism of Wnt3a pathway luciferase reporter – Wnt-LIGHT cells, luminescence, selectivity assay for Gli-SUFU antagonist project, dose response (AID 651570); format: functional; details: read-out: IC50_Mean;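 note: Wnt-LIGHT reporter cells stimulated with conditioned medium from Wnt3a-producing cells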
[11] = Trypanosoma cruzi growth suppression in host cells – NIH3T3 host cells, beta-gal luminescence, confirmation (AID 2044); format: functional, cell-based;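 note: intracellular parasites grown in NIH/3T3 mouse fibroblasts as host cells; luminescent beta-galactosidase reporter signal from transgenic T. cruzi replicating inside host cells; inhibitors lower the luminescence signal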
[12] = target: Glyceraldehyde-3-phosphate dehydrogenase (Homo sapiens, UniProt P04406)
Sequence of Glyceraldehyde-3-phosphate dehydrogenase (P04406 whole entry): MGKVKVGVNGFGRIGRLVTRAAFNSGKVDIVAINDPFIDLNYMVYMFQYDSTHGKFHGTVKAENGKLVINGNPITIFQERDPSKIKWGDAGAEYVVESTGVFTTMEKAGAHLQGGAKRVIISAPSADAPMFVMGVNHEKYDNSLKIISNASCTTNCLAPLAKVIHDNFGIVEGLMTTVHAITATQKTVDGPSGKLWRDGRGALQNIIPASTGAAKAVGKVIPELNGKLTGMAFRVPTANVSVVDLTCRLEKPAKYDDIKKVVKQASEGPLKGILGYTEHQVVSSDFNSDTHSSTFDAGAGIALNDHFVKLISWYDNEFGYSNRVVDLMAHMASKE

[13] = target: T3, Alkaline phosphatase, tissue-nonspecific isozyme (Homo sapiens, UniProt P05186); experiment: potency against alkaline phosphatase TNAP – biochemical, luminescent, dose response, SAR follow-up (AID 1056)
T3 sequence (P05186 whole entry): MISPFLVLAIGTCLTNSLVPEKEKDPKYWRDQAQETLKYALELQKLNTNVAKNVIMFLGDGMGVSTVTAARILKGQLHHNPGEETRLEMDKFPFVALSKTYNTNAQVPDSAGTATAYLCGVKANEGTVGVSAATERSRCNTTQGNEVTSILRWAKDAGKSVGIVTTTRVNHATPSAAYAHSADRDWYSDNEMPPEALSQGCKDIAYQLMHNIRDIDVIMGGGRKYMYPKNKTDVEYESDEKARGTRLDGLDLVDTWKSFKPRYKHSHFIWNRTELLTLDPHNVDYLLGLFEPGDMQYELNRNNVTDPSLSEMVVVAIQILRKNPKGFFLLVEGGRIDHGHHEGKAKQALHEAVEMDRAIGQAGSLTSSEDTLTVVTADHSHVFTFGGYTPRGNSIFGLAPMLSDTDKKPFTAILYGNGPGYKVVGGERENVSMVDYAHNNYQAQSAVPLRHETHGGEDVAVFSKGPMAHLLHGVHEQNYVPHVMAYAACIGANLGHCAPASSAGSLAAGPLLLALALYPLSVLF

[14] = A Cell Based Secondary Assay To Explore Cytotoxicity of Compounds that Sensitize Mycobacterium Tuberculosis to Beta-Lactam Antibiotics.; format: functional
[15] = target: Voltage-dependent T-type calcium channel subunit alpha-1H (Homo sapiens, UniProt O95180); format: functional;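 note: channel activity triggered by adding a high calcium stimulation buffer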
Sequence of Voltage-dependent T-type calcium channel subunit alpha-1H (O95180 whole entry): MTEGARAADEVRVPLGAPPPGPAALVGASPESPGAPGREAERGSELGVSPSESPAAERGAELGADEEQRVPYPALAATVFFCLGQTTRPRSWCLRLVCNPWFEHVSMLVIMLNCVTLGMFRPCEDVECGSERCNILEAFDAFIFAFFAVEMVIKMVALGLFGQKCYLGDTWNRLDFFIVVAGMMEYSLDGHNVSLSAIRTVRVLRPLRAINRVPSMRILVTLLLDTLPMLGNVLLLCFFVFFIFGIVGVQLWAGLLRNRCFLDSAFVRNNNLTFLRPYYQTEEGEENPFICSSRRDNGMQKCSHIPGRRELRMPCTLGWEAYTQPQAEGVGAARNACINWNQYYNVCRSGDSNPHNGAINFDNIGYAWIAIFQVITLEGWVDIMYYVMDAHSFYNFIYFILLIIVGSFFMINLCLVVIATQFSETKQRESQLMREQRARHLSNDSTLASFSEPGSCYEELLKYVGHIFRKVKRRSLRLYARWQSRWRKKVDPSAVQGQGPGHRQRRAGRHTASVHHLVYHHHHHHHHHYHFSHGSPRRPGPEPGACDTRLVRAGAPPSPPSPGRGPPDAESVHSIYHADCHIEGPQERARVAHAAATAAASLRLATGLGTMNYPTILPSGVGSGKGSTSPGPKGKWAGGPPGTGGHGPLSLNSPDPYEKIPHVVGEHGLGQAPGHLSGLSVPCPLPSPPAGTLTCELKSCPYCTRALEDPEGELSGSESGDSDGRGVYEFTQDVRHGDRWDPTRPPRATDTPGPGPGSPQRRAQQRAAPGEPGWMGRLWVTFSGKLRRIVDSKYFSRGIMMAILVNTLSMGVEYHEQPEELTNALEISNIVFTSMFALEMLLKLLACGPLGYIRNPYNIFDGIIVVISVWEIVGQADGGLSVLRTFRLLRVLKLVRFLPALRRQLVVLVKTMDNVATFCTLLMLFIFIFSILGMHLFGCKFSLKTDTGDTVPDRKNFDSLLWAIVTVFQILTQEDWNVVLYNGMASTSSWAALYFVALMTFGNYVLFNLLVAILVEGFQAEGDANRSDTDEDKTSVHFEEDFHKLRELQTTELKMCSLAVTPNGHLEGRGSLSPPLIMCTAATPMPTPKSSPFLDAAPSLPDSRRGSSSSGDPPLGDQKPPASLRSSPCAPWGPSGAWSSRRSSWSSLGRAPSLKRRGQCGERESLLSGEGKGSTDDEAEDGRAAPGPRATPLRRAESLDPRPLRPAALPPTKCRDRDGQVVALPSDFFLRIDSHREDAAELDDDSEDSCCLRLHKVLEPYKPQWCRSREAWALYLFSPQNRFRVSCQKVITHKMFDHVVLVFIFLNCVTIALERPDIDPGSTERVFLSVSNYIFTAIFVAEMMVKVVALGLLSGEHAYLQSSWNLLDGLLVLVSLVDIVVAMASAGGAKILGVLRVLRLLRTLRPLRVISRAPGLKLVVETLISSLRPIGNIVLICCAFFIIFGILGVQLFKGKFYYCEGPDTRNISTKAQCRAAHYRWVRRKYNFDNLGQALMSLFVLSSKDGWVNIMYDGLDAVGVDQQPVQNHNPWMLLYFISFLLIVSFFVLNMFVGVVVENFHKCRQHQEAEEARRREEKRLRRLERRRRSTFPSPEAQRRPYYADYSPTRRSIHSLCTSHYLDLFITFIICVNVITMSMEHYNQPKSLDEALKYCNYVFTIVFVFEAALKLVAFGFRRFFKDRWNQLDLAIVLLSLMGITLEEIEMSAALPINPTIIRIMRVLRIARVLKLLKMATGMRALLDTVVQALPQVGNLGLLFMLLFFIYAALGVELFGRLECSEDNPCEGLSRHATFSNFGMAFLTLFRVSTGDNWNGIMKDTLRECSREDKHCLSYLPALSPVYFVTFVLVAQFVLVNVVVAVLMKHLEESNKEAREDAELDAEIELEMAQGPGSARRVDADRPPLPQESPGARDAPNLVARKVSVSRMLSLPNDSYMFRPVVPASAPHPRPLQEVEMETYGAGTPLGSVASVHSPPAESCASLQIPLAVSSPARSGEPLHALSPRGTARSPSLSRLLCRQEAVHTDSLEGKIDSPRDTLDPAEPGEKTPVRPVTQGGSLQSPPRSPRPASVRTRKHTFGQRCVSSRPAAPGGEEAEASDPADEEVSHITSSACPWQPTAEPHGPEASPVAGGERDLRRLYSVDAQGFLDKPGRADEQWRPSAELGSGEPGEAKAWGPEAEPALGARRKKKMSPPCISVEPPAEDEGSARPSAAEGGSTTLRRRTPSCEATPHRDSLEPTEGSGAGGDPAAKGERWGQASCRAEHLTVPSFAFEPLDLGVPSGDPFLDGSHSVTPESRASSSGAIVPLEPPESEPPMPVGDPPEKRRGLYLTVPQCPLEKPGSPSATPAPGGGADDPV

Cytochrome P450 3A4 = Cytochrome P450 3A4 (Homo sapiens, UniProt P08684);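 note: CYP3A4 tested as one member of a cytochrome P450 panel screen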
Sequence of Cytochrome P450 3A4 (P08684 whole entry): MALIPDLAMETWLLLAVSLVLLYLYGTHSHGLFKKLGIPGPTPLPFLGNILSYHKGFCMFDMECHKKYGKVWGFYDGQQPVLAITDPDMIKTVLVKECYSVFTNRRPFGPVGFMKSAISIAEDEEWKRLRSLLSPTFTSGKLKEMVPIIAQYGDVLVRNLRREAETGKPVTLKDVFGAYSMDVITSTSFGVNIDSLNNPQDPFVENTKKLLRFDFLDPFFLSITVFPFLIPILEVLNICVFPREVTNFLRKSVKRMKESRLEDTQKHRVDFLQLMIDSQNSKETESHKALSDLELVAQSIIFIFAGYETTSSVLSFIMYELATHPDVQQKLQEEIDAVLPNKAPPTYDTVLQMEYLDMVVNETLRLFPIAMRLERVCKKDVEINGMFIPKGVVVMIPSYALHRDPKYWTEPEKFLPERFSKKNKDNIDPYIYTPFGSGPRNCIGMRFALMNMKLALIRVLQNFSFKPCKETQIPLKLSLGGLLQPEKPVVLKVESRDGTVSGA

[16] = target: T4, Dual specificity protein phosphatase 6 (Rattus norvegicus, UniProt Q64346)
T4 sequence (Q64346 whole entry): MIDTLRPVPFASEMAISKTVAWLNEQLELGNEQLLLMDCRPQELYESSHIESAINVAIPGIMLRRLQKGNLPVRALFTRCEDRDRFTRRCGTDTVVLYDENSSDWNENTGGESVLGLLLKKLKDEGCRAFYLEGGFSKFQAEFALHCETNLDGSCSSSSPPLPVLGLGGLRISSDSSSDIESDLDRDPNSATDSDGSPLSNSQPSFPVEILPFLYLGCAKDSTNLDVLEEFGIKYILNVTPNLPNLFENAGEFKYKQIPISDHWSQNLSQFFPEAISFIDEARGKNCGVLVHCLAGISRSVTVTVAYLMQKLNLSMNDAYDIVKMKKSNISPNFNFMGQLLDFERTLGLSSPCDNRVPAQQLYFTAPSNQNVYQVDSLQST

[17] = target: T4, Dual specificity protein phosphatase 6; format: functional

Sequence of Intestinal-type alkaline phosphatase (P09923 whole entry): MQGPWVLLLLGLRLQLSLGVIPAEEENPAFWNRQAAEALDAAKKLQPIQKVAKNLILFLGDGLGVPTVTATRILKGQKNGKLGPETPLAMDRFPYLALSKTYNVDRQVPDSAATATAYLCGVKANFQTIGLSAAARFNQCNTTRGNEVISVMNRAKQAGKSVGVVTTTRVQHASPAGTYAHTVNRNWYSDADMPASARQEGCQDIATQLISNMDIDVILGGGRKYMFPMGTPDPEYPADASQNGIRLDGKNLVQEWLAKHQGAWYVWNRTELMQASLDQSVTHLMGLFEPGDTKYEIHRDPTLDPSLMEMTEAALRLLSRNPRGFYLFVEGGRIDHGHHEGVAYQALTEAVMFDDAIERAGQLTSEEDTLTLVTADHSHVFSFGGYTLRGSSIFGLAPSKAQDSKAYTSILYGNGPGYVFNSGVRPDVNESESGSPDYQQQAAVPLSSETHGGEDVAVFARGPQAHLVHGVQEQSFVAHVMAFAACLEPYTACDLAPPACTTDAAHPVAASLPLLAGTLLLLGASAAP

Compound: COc1cc(Cl)ccc1OCc1cc(C(=O)N2CCCCCCC2)no1
- IC50 [1]: > 100 µM (inactive)

Compound: CCSS(=O)(=O)c1cccc2cccnc12
- IC50 [2]: 12.7 µM (active)
- IC50 [3]: > 100 µM (inactive)
- IC50 (Large T antigen): > 100 µM (active)

Compound: COc1ccc(C(C(=O)NC2CCCCC2)N(C(=O)CCl)c2ccc(Cl)cc2)cc1 (configuration not stated)
- EC50 [4]: 0.681 µM (active)
- EC50 (Protein RecA): 0.236 µM (active)
- AC50 [5]: 0.774 µM (active)
- EC50 (BJ [6]): 2.51 µM (active)
- EC50 (BJ [7]): 4.11 µM (inconclusive)
- EC50 [8]: 1.23 µM (active)
- IC50 [9]: > 80 µM (inactive)
- EC50 (BJ [10]): 0.152 µM (active)
- IC50 (Protein Wnt-3a): 3.16 µM (active)
- EC50 [11]: 0.166 µM (active)

Compound: CCCCc1ccc(S(=O)(=O)Nc2cnc3ccccc3c2)cc1
- IC50 [12]: > 100 µM (not active)
- IC50 [13]: > 100 µM (inactive)

Compound: COC(=O)CSc1nnc(S)s1
- IC50 [2]: 17 µM (active)
- IC50 [3]: > 100 µM (inactive)

Compound: COC(=O)c1cc(C#N)c(Oc2ccccc2OC)nc1C
- IC50 [1]: > 100 µM (inactive)

Compound: O=C(c1cnn2c(C(F)(F)F)cc(-c3cccs3)nc12)N1CCN(C(c2ccccc2)c2ccccc2)CC1
- CC50 [14]: > 40 µM (active)
- EC50 [15]: 6.75 µM (active)

Compound: O=C(Cc1ncc(C(F)(F)F)cc1Cl)Nc1cccc(Br)c1
- EC50 [15]: 4.24 µM (active)
- AC50 (Cytochrome P450 3A4): 14.1 µM (inconclusive)

Compound: CCOc1ccc(NC(=O)CSc2nncn2C)cc1
- IC50 [1]: > 100 µM (inactive)

Compound: O=S(=O)(O)c1ccc2cc(/N=N/c3cc(S(=O)(=O)O)c4cccnc4c3O)ccc2c1
- IC50 [12]: > 100 µM (not active)
- IC50 [16]: 5.1 µM (active)
- IC50 [17]: 4.19 µM (active)
